Test results: US20240010684A1, “MASP INHIBITORY COMPOUNDS AND USES THEREOF” (BAYER AKTIENGESELLSCHAFT, priority 2020, published 2024)
Where a SMILES comes first, the peptide text is derived from it. Bridges are numbered along the chain shown (N, C = ends). [ ]: non-standard residue; d: D form. Trx = NC[C@H]1CC[C@H](C(=O)O)CC1; tBuAla = CC(C)(C)C[C@H](N)C(=O)O; Pen = CC(C)(S)[C@H](N)C(=O)O; NMeC = CN[C@@H](CS)C(=O)O; Orn = NCCC[C@H](N)C(=O)O; Dap = NC[C@H](N)C(=O)O; Ahx = NCCCCCC(=O)O

Tests used:
human MASP1 = human MASP1 (Homo sapiens (Human), UniProt P48740); experiment: Biochemical human MASP1 assay (FRET substrate); settings: Average IC50; recombinant human MASP1; read-out: human MASP1 IC50
Chain of human MASP1 (P48740 other isoform, or with tags, fused parts or gaps): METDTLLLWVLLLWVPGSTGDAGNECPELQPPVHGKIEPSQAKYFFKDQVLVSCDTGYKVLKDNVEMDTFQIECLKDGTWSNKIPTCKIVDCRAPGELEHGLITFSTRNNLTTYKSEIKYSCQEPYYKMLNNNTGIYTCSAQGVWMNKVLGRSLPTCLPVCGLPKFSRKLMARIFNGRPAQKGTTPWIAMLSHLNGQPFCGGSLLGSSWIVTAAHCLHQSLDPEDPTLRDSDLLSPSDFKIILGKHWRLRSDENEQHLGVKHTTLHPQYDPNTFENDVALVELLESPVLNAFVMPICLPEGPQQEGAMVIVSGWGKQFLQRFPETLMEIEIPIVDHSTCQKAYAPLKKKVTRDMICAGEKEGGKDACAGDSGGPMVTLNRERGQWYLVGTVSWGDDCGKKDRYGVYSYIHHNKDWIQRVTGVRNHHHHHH
Procedure, shortened: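 IC50 derived from % inhibition versus compound concentration, with fluorescence increase read at 320/420 nm after 60-120 min at 32 C. Enzyme: HEK293-secreted, His-tagged human MASP1 fragment 297-699 at 20 nM in HEPES pH 8,0 buffer with NaCl, CHAPS, glutathione; substrate ABZ-peptide-Lys(Dnp)-NH2 added as 20 μM solution.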

[1] = tested on: Human C3-DEPOSITION SERUM; experiment: C3 deposition assay, human serum on mannan-coated plates; assay type: biochemical; settings: Average IC50, read-out: Human C3-DEPOSITION SERUM IC50
Protocol: 3. C3 Deposition Assay (Human, Rat, Mouse, Dog, Pig))
The C3 deposition assay was conducted essentially as described (reference). Multiwell plates (Greiner-Nunc 384 Maxi Sorp #464718) were coated over night with Mannan from Saccharomyces cerevisiae (Sigma M7504, 10 μg/mL in 0.05 M carbonate-bicarbonate buffer, pH 9.6) at 4° C. Wells were washed three times with TBS and subsequently incubated for 2 hours with 50 μL of 1% bovine serum albumin (BSA) in Tris-buffered saline (TBS) at 37° C. in order to block non-specific binding. After this step and each of the following incubation steps wells were washed three times with C3 wash buffer (TBS; 0.05% Tween 20; 5 mM CaCl2). […] When appropriately developed the color reaction was stopped by addition of 25 μL of stop solution (Sigma S5814) and quantified on a photometer by measuring absorption at a wavelength of 450 nm. Antibodies were diluted in C3 wash buffer supplemented with 0.5% BSA.

human MASP2 = human MASP2 (Homo sapiens (Human), UniProt O00187); experiment: Biochemical human MASP2 assay (FRET substrate); settings: Average IC50; recombinant human MASP2; read-out: human MASP2 IC50
Chain of human MASP2 (O00187 other isoform, or with tags, fused parts or gaps): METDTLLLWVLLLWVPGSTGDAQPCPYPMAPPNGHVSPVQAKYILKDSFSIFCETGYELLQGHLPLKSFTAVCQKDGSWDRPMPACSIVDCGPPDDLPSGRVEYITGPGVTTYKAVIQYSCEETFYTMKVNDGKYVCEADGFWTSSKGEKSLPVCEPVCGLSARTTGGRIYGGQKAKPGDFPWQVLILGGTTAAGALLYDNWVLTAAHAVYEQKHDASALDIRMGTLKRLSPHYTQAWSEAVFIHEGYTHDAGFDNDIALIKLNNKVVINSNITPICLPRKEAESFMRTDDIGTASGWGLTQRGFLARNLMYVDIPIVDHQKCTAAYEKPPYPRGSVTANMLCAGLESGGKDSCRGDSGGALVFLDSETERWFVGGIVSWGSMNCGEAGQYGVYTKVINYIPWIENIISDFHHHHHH
Procedure, shortened: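 IC50 came from % inhibition across compound concentrations, with fluorescence (ex 340 nm, em 490 nm) read after 60-120 min at 32 C. Substrate was a DABCYL FRET peptide, added as a 60 μM solution, cleaved by HEK293-expressed, Ni-NTA-purified mature recombinant human MASP2.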

IC50 (human MASP1)	IC50 [1]	IC50 (human MASP2)	Structure (SMILES)
0.00325 µM	0.0191 µM	0.15 µM	CC[C@H](C)[C@@H]1NC(=O)[C@H]2NC(=O)[C@H]([C@@H](C)CC)NC(=O)[C@@H]3CCCN3C(=O)[C@@H]3CCCN3C(=O)[C@H](CC(C)(C)C)NC(=O)[C@H](CO)NC(=O)[C@H](CCCNC(=N)N)NC(=O)[C@H](CO)NC(=O)[C@H](CSSC2(C)C)NC(=O)[C@H]([C@@H](C)CC)NC(=O)[C@@H](N)CCCCNC1=O [Example 67, N-{3-[(5aS,11S,14S,17S,20S,23R,26S,29S,36S,39R,42S,44aS)-29-amino-26,36,42-tri[(2S)-butan-2-yl]-11-(2,2-dimethylpropyl)-14,20-bis(hydroxymethyl)-45,45-dimethyl-5,10,13,16,19,22,25,28,35,38,41,44-dodecaoxodotetracontahydro-1H,5H-23,39-(methanodithiomethano)dipyrrolo[2,1-1:2′,1′-o][1,4,7,10,13,16,19,22,25,28,31,34]dodecaazacyclotetracontin-17-yl]propyl}guanidine] (H-KICSRS[tBuAla]PPI[Pen]I; lactam 1-C; disulfide 3-11)
0.02 µM	0.364 µM	0.19 µM	CC[C@H](C)[C@@H]1NC(=O)CNC(=O)[C@H]2CC[C@@H](CC2)CNC(=O)CNC(=O)C[C@@H](C(N)=O)NC(=O)[C@@H]2CCCN2C(=O)[C@H]([C@@H](C)CC)NC(=O)[C@@H]2CSSC[C@H](NC1=O)C(=O)N[C@@H](CO)C(=O)N[C@@H](CCCNC(=N)N)C(=O)N[C@@H](CO)C(=O)N[C@@H](CC(C)(C)C)C(=O)N1CCC[C@H]1C(=O)N1CCC[C@H]1C(=O)N[C@@H]([C@@H](C)CC)C(=O)N2C [Example 69, (1R,4S,10S,13S,21S,24S,30S,33R,36S,39S,42S,45S,51S,57S,60S)-4,30,60-tri[(2S)-butan-2-yl]-39-(3-carbamimidamidopropyl)-45-(2,2-dimethylpropyl)-36,42-bis(hydroxymethyl)-62-methyl-2,5,11,15,18,25,28,31,34,37,40,43,46,52,58,61-hexadecaoxo-64,65-dithia-3,6,12,16,19,26,29,32,35,38,41,44,47,53,59,62-hexadecaazahexacyclo[31.29.4.2^21,240.0^6,100.0^47,510.0^53,57]octahexacontane-13-carboxamide] (G[Trx]GICSRS[tBuAla]PPI[NMeC]IPD-NH2; disulfide 5-13; lactam N-16)
0.0081 µM	0.0258 µM	0.022 µM	CC[C@H](C)[C@@H]1NC(=O)[C@H]2NC(=O)[C@H]([C@@H](C)CC)NC(=O)[C@@H]3CCCN3C(=O)[C@@H]3CCCN3C(=O)[C@H](CC(C)(C)C)NC(=O)[C@H](CO)NC(=O)[C@H](CCCNC(=N)N)NC(=O)[C@H](CO)NC(=O)[C@H](CSSC2(C)C)NC(=O)[C@H]([C@@H](C)CC)NC(=O)[C@@H](N)CCCNC1=O [Example 66, N-{3-[(5aS,11S,14S,17S,20S,23R,26S,29R,35S,38S,41S,43aS)-29-amino-26,35,41-tri[(2S)-butan-2-yl]-11-(2,2-dimethylpropyl)-14,20-bis(hydroxymethyl)-44,44-dimethyl-5,10,13,16,19,22,25,28,34,37,40,43-dodecaoxodotetracontahydro-5H-23,38-(methanodithiomethano)dipyrrolo[2,1-1:2′,1′-o][1,4,7,10,13,16,19,22,25,28,31,34]dodecaazacyclononatriacontin-17-yl]propyl}guanidine] (H-[Orn]ICSRS[tBuAla]PPI[Pen]I; lactam 1-C; disulfide 3-11)
0.0063 µM	0.0282 µM	0.017 µM	CC[C@H](C)[C@@H]1NC(=O)CCCCCNC(=O)[C@@H]2CCCN2C(=O)[C@H]([C@@H](C)CC)NC(=O)[C@H]2NC(=O)[C@H]([C@@H](C)CC)NC(=O)[C@@H]3CCCN3C(=O)[C@@H]3CCCN3C(=O)[C@H](CC(C)(C)C)NC(=O)[C@H](CO)NC(=O)[C@H](CCCNC(=N)N)NC(=O)[C@H](CO)NC(=O)[C@H](CSSC2(C)C)NC1=O [Example 51] (cyclo([Ahx]ICSRS[tBuAla]PPI[Pen]IP); disulfide 3-11)
0.022 µM	0.121 µM	0.0635 µM	CC[C@H](C)[C@@H]1NC(=O)[C@H](C)NC(=O)CCCCCNC(=O)[C@H](CC(=O)O)NC(=O)[C@@H]2CCCN2C(=O)[C@H]([C@@H](C)CC)NC(=O)[C@@H]2CSSC[C@H](NC1=O)C(=O)N[C@@H](CO)C(=O)N[C@@H](CCCNC(=N)N)C(=O)N[C@@H](CO)C(=O)N[C@@H](CC(C)(C)C)C(=O)N1CCC[C@H]1C(=O)N1CCC[C@H]1C(=O)N[C@@H]([C@@H](C)CC)C(=O)N2C [Example 32] (cyclo(AICSRS[tBuAla]PPI[NMeC]IPD[Ahx]); disulfide 3-11)
0.016 µM	0.0594 µM	0.14 µM	CC[C@H](C)[C@@H]1NC(=O)[C@H](C)NC(=O)CNC(=O)C[C@@H](C(N)=O)NC(=O)[C@@H]2CCCN2C(=O)[C@H]([C@@H](C)CC)NC(=O)[C@@H]2CSSC[C@H](NC1=O)C(=O)N[C@@H](CO)C(=O)N[C@@H](CCCNC(=N)N)C(=O)N[C@@H](CO)C(=O)N[C@@H](CC(C)C)C(=O)N1CCC[C@H]1C(=O)N1CCC[C@H]1C(=O)N[C@@H]([C@@H](C)CC)C(=O)N2 [Example 37] (GAICSRSLPPICIPD-NH2; disulfide 4-12; lactam N-15)
0.046 µM	0.382 µM	0.9 µM	CC[C@H](C)[C@@H]1NC(=O)[C@H](CN)NC(=O)[C@@H]2CCCN2C(=O)[C@H]([C@@H](C)CC)NC(=O)[C@H]2NC(=O)[C@H]([C@@H](C)CC)NC(=O)[C@@H]3CCCN3C(=O)[C@@H]3CCCN3C(=O)[C@H](CC(C)(C)C)NC(=O)[C@H](CO)NC(=O)[C@H](CCCNC(=N)N)NC(=O)[C@H](CO)NC(=O)[C@H](CSSC2(C)C)NC1=O [Example 55, N-{3-[(6S,9S,12S,15S,18R,21S,24S,26aS,32S,35R,38S,40aS,45aS)-24-(aminomethyl)-21,32,38-tri[(2S)-butan-2-yl]-6-(2,2-dimethylpropyl)-9,15-bis(hydroxymethyl)-46,46-dimethyl-5,8,11,14,17,20,23,26,31,34,37,40,45-tridecaoxotetratetracontahydro-1H-18,35-(methanodithiomethano)tripyrrolo[1,2-a:1′,2′-d:1″,2″-p][1,4,7,10,13,16,19,22,25,28,31,34,37]tridecaazacyclononatriacontin-12-yl]propyl}guanidine] (cyclo(CSRS[tBuAla]PPI[Pen]IP[Dap]I); disulfide 1-9)
0.046 µM	0.236 µM	0.34 µM	CC[C@H](C)[C@@H]1NC(=O)[C@H](CN)NC(=O)[C@H](CN)NC(=O)[C@H]([C@@H](C)CC)NC(=O)[C@H]2NC(=O)[C@H]([C@@H](C)CC)NC(=O)[C@@H]3CCCN3C(=O)[C@@H]3CCCN3C(=O)[C@H](CC(C)(C)C)NC(=O)[C@H](CO)NC(=O)[C@H](CCCNC(=N)N)NC(=O)[C@H](CO)NC(=O)[C@H](CSSC2(C)C)NC1=O [Example 57, N-{3-[(5aS,11S,14S,17S,20S,23R,26S,29S,32S,35S,38R,41S,43aS)-29,32-bis(aminomethyl)-26,35,41-tri[(2S)-butan-2-yl]-11-(2,2-dimethylpropyl)-14,20-bis(hydroxymethyl)-44,44-dimethyl-5,10,13,16,19,22,25,28,31,34,37,40,43-tridecaoxodotetracontahydro-5H-23,38-(methanodithiomethano)dipyrrolo[1,2-a:1′,2′-d]-[1,4,7,10,13,16,19,22,25,28,31,34,37]tridecaazacyclononatriacontin-17-yl]propyl}guanidine] (cyclo(CSRS[tBuAla]PPI[Pen]I[Dap][Dap]I); disulfide 1-9)
0.0067 µM	0.0282 µM	0.12 µM	CC[C@H](C)[C@@H]1NC(=O)[C@H](C)NC(=O)CCCCCNC(=O)C[C@@H](C(N)=O)NC(=O)[C@@H]2CCCN2C(=O)[C@H]([C@@H](C)CC)NC(=O)[C@H]2NC(=O)[C@H]([C@@H](C)CC)NC(=O)[C@@H]3C[C@@H]4CCCC[C@@H]4N3C(=O)[C@H]3CCCN3C(=O)[C@H](CC(C)C)NC(=O)[C@H](CO)NC(=O)[C@H](CCCNC(=N)N)NC(=O)[C@H](CO)NC(=O)[C@H](CSSC2(C)C)NC1=O [Example 43]
0.0031 µM	0.0234 µM	0.31 µM	CC[C@H](C)[C@@H]1NC(=O)[C@H](C)NC(=O)[C@@H](N)CCCNC(=O)C[C@@H](C(N)=O)NC(=O)[C@@H]2CCCN2C(=O)[C@H]([C@@H](C)CC)NC(=O)[C@H]2NC(=O)[C@H]([C@@H](C)CC)NC(=O)[C@@H]3CCCN3C(=O)[C@@H]3CCCN3C(=O)[C@H](CC(C)(C)C)NC(=O)[C@H](CO)NC(=O)[C@H](CCCNC(=N)N)NC(=O)[C@H](CO)NC(=O)[C@H](CSSC2(C)C)NC1=O [Example 61] (H-[Orn]AICSRS[tBuAla]PPI[Pen]IPD-NH2; lactam 1-15; disulfide 4-12)
